One compound from US11306051B2, “Use of vanillin derivatives as a preservative, preservation method, compounds, and composition” (L'OREAL, priority 2009, dated 2022) can be followed below.

Common to all, as to format: cell-based
For assay [1], the system named is Enterococcus faecalis (Ef) ATCC 33186. The assay can be described thus: Challenge Test (artificial contamination) of cosmetic formula, E. faecalis. The conditions noted are these: 2% compound in cosmetic formula; inoculation about 10^6 cfu/gram; 7 days contact at 22° C.±2° C. in darkness; <200 cfu = sensitivity threshold. The protocol: (§1) The antimicrobial efficacy of a compound of formula (I) was evaluated via the Challenge Test or artificial contamination method. The method of the challenge test consists of an artificial contamination of the sample with collection microbial strains (bacteria, yeasts and moulds) and evaluation of the number of revivable microorganisms seven days after the inoculation. […] [table] […] After 7 days of contact time between the microorganisms and the product at 22° C.±2° C. and in darkness, decimal dilutions are performed and the number of revivable microorganisms remaining in the product is counted.

The subject of assay [2] is Aspergillus niger (An) ATCC 6275. The assay can be described thus: Challenge Test (artificial contamination) of cosmetic formula, A. niger. The settings on record: 2% compound in cosmetic formula; inoculation about 10^6 cfu/gram; 7 days contact at 22° C.±2° C. in darkness. As for the experimental part: The antimicrobial efficacy of a compound of formula (I) was evaluated via the Challenge Test or artificial contamination method. The method of the challenge test consists of an artificial contamination of the sample with collection microbial strains (bacteria, yeasts and moulds) and evaluation of the number of revivable microorganisms seven days after the inoculation. […] [table] The gram-negative bacteria (Escherichia coli and Pseudomonas aeruginosa), gram-positive bacteria (Enterococcus faecalis), yeast (Candida albicans) and mould (Aspergillus niger) are seeded in the subculturing medium, respectively, the day before the inoculation for the bacteria and the yeast, and five days before the inoculation for the mould. for the mould, the spores are collected by washing the agar with 6 to 7 ml of harvesting solution and the suspension is recovered in a sterile tube or flask. After homogenizing the microbial suspension, 0.2 ml of inoculum is introduced into each pill bottle (the suspensions are used pure: between 1×10^8 and 3×10^8 cfu per ml) and the microbial suspension in the 20 g of product (=cosmetic formula) is homogenized thoroughly using a spatula. […] After 7 days of contact time between the microorganisms and the product at 22° C.±2° C. and in darkness, decimal dilutions are performed and the number of revivable microorganisms remaining in the product is counted.

Assay [3] relates to Pseudomonas aeruginosa (Pa) ATCC 19429. Description: Challenge Test (artificial contamination) of cosmetic formula, P. aeruginosa. The settings on record: 2% compound in cosmetic formula; inoculation about 10^6 cfu/gram; 7 days contact at 22° C.±2° C. in darkness; <200 cfu = sensitivity threshold. As for the experimental part:
as §1

In assay [4] the test system is Candida albicans (Ca) ATCC 10231. The assay can be described thus: Challenge Test (artificial contamination) of cosmetic formula, C. albicans. The conditions noted are these: 2% compound in cosmetic formula; inoculation about 10^6 cfu/gram; 7 days contact at 22° C.±2° C. in darkness; <200 cfu = sensitivity threshold. The protocol:
as §1

Assay [5] deals with Escherichia coli (Ec) ATCC 8739. The assay can be described thus: Challenge Test (artificial contamination) of cosmetic formula, E. coli. The conditions noted are these: 2% compound in cosmetic formula; inoculation about 10^6 cfu/gram; 7 days contact at 22° C.±2° C. in darkness; <200 cfu = sensitivity threshold. As for the experimental part:
as §1

With `CCOc1cc(CCC(C)=O)ccc1O` [Compound], the “No. of cfu/gram of product at T7 days, E. faecalis” value in assay [1] is <200 cfu/gram of product. The “No. of cfu/gram of product at T7 days, A. niger” value in assay [2] is reported as 3.4 × 10^5 cfu/gram of product. The “No. of cfu/gram of product at T7 days, P. aeruginosa” value in assay [3] is <200 cfu/gram of product. Besides, the “No. of cfu/gram of product at T7 days, C. albicans” value in assay [4] is recorded as <200 cfu/gram of product. For the same compound, in assay [5], the “No. of cfu/gram of product at T7 days, E. coli” value was <200 cfu/gram of product.
